The values that follow come from US11096939B2, “KRAS G12C inhibitors and methods of using the same” (Amgen Inc., priority 2018, dated 2021).

The target of test [1] is GDP-bound KRAS protein (aa 1-169), containing both G12C and C118A amino acid substitutions (Homo sapiens, UniProt P01116, C118A/G12C). Nature of the test: Coupled nucleotide exchange assay (SOS-mediated, AlphaScreen). It counts as biochemical. The note with it: compound pre-incubation either 5 min or 2 hours (not stated per value); SOS and GTP added, cRAF AlphaScreen readout. The method, then: Coupled Nucleotide Exchange Assay:
Following compound pre-incubation, purified SOS protein (aa 564-1049) and GTP (Roche 10106399001) were added to the assay wells and incubated for an additional 30 min (for 5 min compound pre-incubation) or 1 hour (for 2 hour compound pre-incubation). To determine the extent of inhibition of SOS-mediated nucleotide exchange, purified GST-tagged cRAF (aa 1-149), nickel chelate AlphaLISA acceptor beads (PerkinElmer AL108R), and AlphaScreen glutathione donor beads (PerkinElmer 6765302) were added to the assay wells and incubated for 10 minutes. The assay plates were then read on a PerkinElmer EnVision Multilabel Reader, using AlphaScreen® technology, and data were analyzed using a 4-parameter logistic model to calculate IC50 values.

Test [2] deals with Phosphorylation of ERK1/2 in MIA PaCa-2 cells. Put plainly: Phospho-ERK1/2 MSD assay. The note with it: Homo sapiens, MIA PaCa-2, MIA PaCa-2 cells; compound 2 or 4 hours; 10 ng/mL EGF for 10 min; read-out: p-ERK IC50 (MIA-PaCa-2). It counts as cell-based. The method, then: Phospho-ERK1/2 MSD Assay:
MIA PaCa-2 (ATCC® CRL-1420™)-cells were cultured in RPMI 1640 Medium (ThermoFisher Scientific 11875093) containing 10% fetal bovine serum (ThermoFisher Scientific 16000044) and 1× penicillin-streptomycin-glutamine (ThermoFisher Scientific 10378016). Sixteen hours prior to compound treatment, MIA PaCa-2 cells were seeded in 96-well cell culture plates at a density of 25,000 cells/well and incubated at 37° C., 5% CO2. A compound dose-response titration was diluted in growth media, added to appropriate wells of a cell culture plate, and then incubated at 37° C., 5% CO2 for 2 or 4 hours. Following compound treatment, cells were stimulated with 10 ng/mL EGF (Roche 11376454001) for 10 min, washed with ice-cold Dulbecco's phosphate-buffered saline, no Ca^2+ or Mg^2+ (ThermoFisher Scientific 14190144), and then lysed in RIPA buffer (50 mM Tris-HC pH 7.5, 1% Igepal, 0.5% sodium deoxycholate, 150 mM NaCl, and 0.5% sodium dodecyl sulfate) containing protease inhibitors (Roche 4693132001) and phosphatase inhibitors (Roche 4906837001). Phosphorylation of ERK1/2 in compound-treated lysates was assayed using Phospho-ERK1/2 Whole Cell Lysate kits (Meso Scale Discovery KI51DWD) according to the manufacturer's protocol. Assay plates were read on a Meso Scale Discovery Sector Imager 6000, and data were analyzed using a 4-parameter logistic model to calculate IC50 values.

The structures appear in SMILES notation.

GDP-bound KRAS protein (aa 1-169), containing both G12C and C118A amino acid substitutions, sequence (P01116 1-169 isoform P01116-2 G12C/C118A): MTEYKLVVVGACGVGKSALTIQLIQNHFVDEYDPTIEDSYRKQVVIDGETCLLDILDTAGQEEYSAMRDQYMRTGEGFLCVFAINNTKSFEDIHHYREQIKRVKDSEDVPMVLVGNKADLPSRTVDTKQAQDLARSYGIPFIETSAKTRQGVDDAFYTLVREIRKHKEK

Turning to `C=CC(=O)N1C[C@H](C)N(C2=NC(=O)C(C)(C3CC3)c3nc(-c4ccccc4F)c(Cl)cc32)C[C@H]1C` (stereo partly drawn) [Example 1-2, 5-((2S,5R)-4-Acryloyl-2,5-dimethylpiperazin-1-yl)-3-chloro-8-cyclopropyl-2-(2-fluorophenyl)-8-methyl-1,6-naphthyridin-7(8H)-one], the “Coupled Exchange IC50” value in test [1] came out at 20100 nM. The IC50 in test [2] worked out at 1630 nM.

For orientation: IC50 means the point on the concentration scale where inhibition reaches its midpoint.
